Measured values: patent publication US10472664B2, “Screening assay for identification of poly(ADP-ribose) polymerase 1 inhibitors” (Institute for Cancer Research, priority 2014, dated 2019)

Tested on: PARP-1
Experiment: PARP-1 regulation by purified histones in vitro, pADPr detected on Western blot
Assay type: biochemical
Settings: PARP-1 pre-incubated with purified histone, then mixed with NAD; FIG. 2A, 2B
Procedure: FIGS. 2A-D show PARP-1 protein regulation by histones (poly(ADP-ribose) polymer is denoted “pADPr”). […] Full-length PARP-1 protein (left) and PARP-1 protein cleaved by Caspase 3 (right) were pre-incubated with randomly broken DNA or core histone H4, followed by mixing with NAD. The products of PARP-1 enzymatic activity, poly(ADP-ribose), were detected after PAGE on a Western blot using the anti-pADPr antibody. […] PARP-1 was pre-incubated with different coregulators, followed by mixing with NAD. The amount of the product of PARP-1 enzymatic activity, poly(ADP-ribose), was detected after PAGE on a Western blot using the anti-Change(s) pADPr antibody and quantified independently using the Image Quant.
The two pathways described in Example 1 can be separated in vitro by cleaving Zn-fingers from the PARP-1 protein using caspase 3. This isoform of PARP-1 can be still activated by H4, but not by DNA (FIG. 2, panel A). […] Although histones H2Av and H2AvSE inhibit PARP-1 by themselves, when contained inside of a nucleosome they facilitate PARP-1 interaction with H4 and thereby activate PARP-1 (FIG. 2 panel D). […] Without intending to be limited to any particular theory or mechanism of action, it is believed that interactions with histones play an important for PARP-1 activation in vivo in genotoxic stress response and in transcriptional pathways.

Substance: H2Av: purified histone variant H2Av
- PARP-1 activation (poly(ADP-ribose) production): does not activate PARP-1
